Experimental data published in patent US20210177803A1, “NEW PHARMACEUTICAL USE FOR THE TREATMENT OF HEART FAILURE” (Novartis AG, priority 2018, published 2021).
Where two headings read alike, the source gives them in different places.

Columns and labels:
[1] = test system: patients with HFrEF following hemodynamic stabilization after an episode of ADHF; conditions: for Patients with ≥1 AE: full analysis set;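 on all read-outs here: adverse events recorded in patients during the 10-week treatment phase following randomization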
NT-proBNP = test system: NT-proBNP
Experimental: The study rational and design is described in by Velazquez E J, et al. .in Am.
The starting dose and all subsequent doses were selected to optimize the highest tolerated dose based on a systolic blood pressure (SBP) algorithm.
Inclusion Criteria: • Patients ≥18 y of age with the capacity to provide written informed consent. • Currently hospitalized for a primary diagnosis of HF, including symptoms and signs of fluid overload. • Eligible patients will be randomized no earlier than 24 hours and up to ten days after presentation while still hospitalized as long as meet the following definition of stable status: • SBP≥100 mm Hg for the preceding 6 hours prior to randomization; no symptomatic hypotension • No increase (intensification) in i.v. diuretic dose within last 6 hours prior to randomization • No i.v. inotropic drugs for 24 hours prior to randomization • No i.v. vasodilators including nitrates within last 6 hours prior to randomization • Left ventricular EF 40% within the past 6 m (including current hospitalization) using echocardiography, multi gated acquisition scan (MUGA), CT scanning, MRI or ventricular angiography, provided no subsequent study documented an EF of >40% • Elevated NT-proBNP≥1600 pg/mL OR BNP≥400 pg/mL during current hospitalization.

neprilysin = neprilysin (Homo sapiens, UniProt P08473); conditions: 200 mg LCZ696 b.i.d.; cited from earlier work
Chain of neprilysin (P08473 whole entry): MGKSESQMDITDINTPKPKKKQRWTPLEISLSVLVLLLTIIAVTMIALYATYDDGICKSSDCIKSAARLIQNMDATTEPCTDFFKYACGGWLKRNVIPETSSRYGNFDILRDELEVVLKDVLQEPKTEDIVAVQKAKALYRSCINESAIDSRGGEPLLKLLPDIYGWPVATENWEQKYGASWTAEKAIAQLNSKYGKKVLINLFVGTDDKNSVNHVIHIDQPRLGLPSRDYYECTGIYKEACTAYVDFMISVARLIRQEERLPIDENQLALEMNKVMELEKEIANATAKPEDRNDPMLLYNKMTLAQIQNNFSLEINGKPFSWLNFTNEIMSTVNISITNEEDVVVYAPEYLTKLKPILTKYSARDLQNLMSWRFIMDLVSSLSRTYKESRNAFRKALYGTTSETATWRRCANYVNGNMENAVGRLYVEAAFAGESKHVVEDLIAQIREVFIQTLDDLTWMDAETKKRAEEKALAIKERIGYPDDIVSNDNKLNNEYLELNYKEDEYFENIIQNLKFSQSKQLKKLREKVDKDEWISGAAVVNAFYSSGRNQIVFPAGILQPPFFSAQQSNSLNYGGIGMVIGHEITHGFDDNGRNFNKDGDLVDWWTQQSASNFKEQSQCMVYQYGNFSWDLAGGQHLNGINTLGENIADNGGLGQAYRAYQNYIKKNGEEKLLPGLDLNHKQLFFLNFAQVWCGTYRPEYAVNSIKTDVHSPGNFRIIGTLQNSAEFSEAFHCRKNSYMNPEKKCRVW

[2] = not naive to ACEI/ARB (N = 665)
[3] = post-discharge, N = 496, 10-week treatment epoch
[4] = post-discharge, N = 496, 10-week treatment period
[5] = pre-discharge, N = 497, 10-week treatment epoch
[6] = pre-discharge, N = 497, 10-week treatment period
[7] = previous diagnosis of HFrEF (N = 705)

CCCCC(=O)N(Cc1ccc(-c2ccccc2-c2nn[n-]n2)cc1)[C@H](C(=O)[O-])C(C)C.CCOC(=O)[C@H](C)C[C@@H](Cc1ccc(-c2ccccc2)cc1)NC(=O)CCC(=O)[O-].[Na+].[Na+].[Na+] [LCZ696, trisodium [3((1S,3R)-1-biphenyl-4-ylmethyl-3-ethoxycarbonyl-1-butylcarbamoyl) propionate-(S)-3′-methyl-2′-(pentanoyl{2″-(tetrazol-5-ylate)biphenyl-4′-ylmethyl}amino)butyrate]hemipentahydrate]
Deaths attributed to the study treatment by the investigator ([1]; both arms): None
SAE hyperkalemia, patients ([1]; both treatment groups): < 1%
SAE hypotension, patients ([1]; both treatment groups): < 1%
AE of interest: Blood creatinine increased ([1]; de novo HFrEF (N = 286)): 3 (1.0) n (%)
AE of interest: Cardiac failure ([1]; de novo HFrEF (N = 286)): 13 (4.5) n (%)
AE of interest: Hyperkalemia ([1]; de novo HFrEF (N = 286)): 24 (8.4) n (%)
AE of interest: Hypotension ([1]; de novo HFrEF (N = 286)): 26 (9.1) n (%)
AE of interest: Renal failure ([1]; de novo HFrEF (N = 286)): 3 (1.0) n (%)
AE of interest: Renal impairment ([1]; de novo HFrEF (N = 286)): 8 (2.8) n (%)
At least one AE ([1]; de novo HFrEF (N = 286)): 178 (62.2) n (%)
At least one serious AE ([1]; de novo HFrEF (N = 286)): 33 (11.5) n (%)
Death ([1]; de novo HFrEF (N = 286)): 1 (0.3) n (%)
Treatment interruption due to AE ([1]; de novo HFrEF (N = 286)): 22 (7.7) n (%)
Rate of permanent discontinuation of study drug due to AEs ([1]; initiated post-discharge (text, secondary endpoint)): 3.5%
Rate of permanent discontinuation of study drug due to AEs ([1]; initiated pre-discharge (text, secondary endpoint)): 4.5%
AE of interest: Blood creatinine increased ([1]; naive to ACEI/ARB (N = 326)): 6 (1.8) n (%)
AE of interest: Cardiac failure ([1]; naive to ACEI/ARB (N = 326)): 17 (5.2) n (%)
AE of interest: Hyperkalemia ([1]; naive to ACEI/ARB (N = 326)): 20 (7.1) n (%)
AE of interest: Hypotension ([1]; naive to ACEI/ARB (N = 326)): 29 (8.9) n (%)
AE of interest: Renal failure ([1]; naive to ACEI/ARB (N = 326)): 6 (1.8) n (%)
AE of interest: Renal impairment ([1]; naive to ACEI/ARB (N = 326)): 8 (2.5) n (%)
At least one AE ([1]; naive to ACEI/ARB (N = 326)): 210 (64.4) n (%)
At least one serious AE ([1]; naive to ACEI/ARB (N = 326)): 47 (14.4) n (%)
Treatment interruption due to AE ([1]; naive to ACEI/ARB (N = 326)): 32 (9.8) n (%)
AE of interest: Blood creatinine increased [1, 2]: 23 (3.5) n (%)
AE of interest: Cardiac failure [1, 2]: 54 (8.1) n (%)
AE of interest: Hyperkalemia [1, 2]: 86 (12.9) n (%)
AE of interest: Hypotension [1, 2]: 79 (11.9) n (%)
AE of interest: Renal failure [1, 2]: 13 (2.0) n (%)
AE of interest: Renal impairment [1, 2]: 32 (4.8) n (%)
At least one AE [1, 2]: 446 (67.1) n (%)
At least one serious AE [1, 2]: 116 (17.4) n (%)
Treatment interruption due to AE [1, 2]: 77 (11.8) n (%)
Mortality, patients who died ([1]; post-discharge arm): 2.0%
AE cardiac failure, patients ([1]; post-discharge group): 8.5%
AE dizziness, patients ([1]; post-discharge group): 4.2%
AE hyperkalemia, patients ([1]; post-discharge group): 11.3%
AE hypotension, patients ([1]; post-discharge group): 9.1%
Patients with SAEs ([1]; post-discharge group): 17.7%
SAE acute kidney injury, patients ([1]; post-discharge group): 1.4%
SAE cardiac failure, patients ([1]; post-discharge group): 7.7%
Permanent treatment discontinuation due to SAEs ([1]; post-discharge, N = 496): 13 (2.6) n (%)
Permanent treatment discontinuation due to non-SAEs ([1]; post-discharge, N = 496): 7 (1.4) n (%)
Serious adverse event: Acute kidney injury ([1]; post-discharge, N = 496): 7 (1.4) n (%)
Serious adverse event: Atrial fibrillation ([1]; post-discharge, N = 496): 4 (0.8) n (%)
Serious adverse event: Cardiac failure(acute/chronic) ([1]; post-discharge, N = 496): 38 (7.7) n (%)
Serious adverse event: Chronic obstructive pulmonary disease ([1]; post-discharge, N = 496): 4 (0.8) n (%)
Serious adverse event: Hyperkalemia ([1]; post-discharge, N = 496): 2 (0.4) n (%)
Serious adverse event: Hypotension ([1]; post-discharge, N = 496): 2 (0.4) n (%)
Serious adverse event: Non-cardiac chest pain ([1]; post-discharge, N = 496): 3 (0.6) n (%)
Serious adverse event: Pneumonia ([1]; post-discharge, N = 496): 3 (0.6) n (%)
Serious adverse event: Pulmonary edema ([1]; post-discharge, N = 496): 2 (0.4) n (%)
Serious adverse event: Renal failure ([1]; post-discharge, N = 496): 1 (0.2) n (%)
Serious adverse event: Respiratory tract infection ([1]; post-discharge, N = 496): 3 (0.6) n (%)
Serious adverse event: Ventricular tachycardia ([1]; post-discharge, N = 496): 0 (0.0) n (%)
Temporary treatment interruption due to AEs ([1]; post-discharge, N = 496): 55 (11.1) n (%)
Temporary treatment interruption due to SAEs ([1]; post-discharge, N = 496): 18 (3.6) n (%)
Temporary treatment interruption due to non-SAEs ([1]; post-discharge, N = 496): 42 (8.5) n (%)
Adverse event: Cardiac failure [1, 3]: 42 (8.5) n (%)
Adverse event: Diarrhea [1, 3]: 23 (4.6) n (%)
Adverse event: Dizziness [1, 3]: 21 (4.2) n (%)
Adverse event: Hyperkalemia [1, 3]: 56 (11.3) n (%)
Adverse event: Hypotension [1, 3]: 45 (9.1) n (%)
Adverse event: Peripheral edema [1, 3]: 24 (4.8) n (%)
Adverse event: Renal impairment [1, 3]: 15 (3.0) n (%)
Adverse event: Urinary tract infection [1, 3]: 15 (3.0) n (%)
Deaths [1, 4]: 10 (2.0) n (%)
Patients with ≥ SAE / at least one SAE [1, 4]: 88 (17.7) n (%)
Patients with ≥1 AE [1, 4]: 323 (65.1) n (%)
Permanent treatment discontinuation due to AEs ([1]; post-discharge, N = 496, full analysis set): 20 (4.0) n (%)
RRR, permanent discontinuation due to AEs ([1]; pre- vs post-discharge): 1.287
Mortality, patients who died ([1]; pre-discharge arm): 2.6%
AE cardiac failure, patients ([1]; pre-discharge group): 6.8%
AE dizziness, patients ([1]; pre-discharge group): 5.6%
AE hyperkalemia, patients ([1]; pre-discharge group): 11.1%
AE hypotension, patients ([1]; pre-discharge group): 12.3%
Patients with SAEs ([1]; pre-discharge group): 18.9%
SAE acute kidney injury, patients ([1]; pre-discharge group): 1.2%
SAE cardiac failure, patients ([1]; pre-discharge group): 7.0%
Permanent treatment discontinuation due to SAEs ([1]; pre-discharge, N = 497): 15 (3.0) n (%)
Permanent treatment discontinuation due to non-SAEs ([1]; pre-discharge, N = 497): 8 (1.6) n (%)
Serious adverse event: Acute kidney injury ([1]; pre-discharge, N = 497): 6(1.2) n (%)
Serious adverse event: Atrial fibrillation ([1]; pre-discharge, N = 497): 3 (0.6) n (%)
Serious adverse event: Cardiac failure(acute/chronic) ([1]; pre-discharge, N = 497): 35 (7.0) n (%)
Serious adverse event: Chronic obstructive pulmonary disease ([1]; pre-discharge, N = 497): 0 (0.0) n (%)
Serious adverse event: Hyperkalemia ([1]; pre-discharge, N = 497): 3 (0.6) n (%)
Serious adverse event: Hypotension ([1]; pre-discharge, N = 497): 4 (0.8) n (%)
Serious adverse event: Non-cardiac chest pain ([1]; pre-discharge, N = 497): 0 (0.0) n (%)
Serious adverse event: Pneumonia ([1]; pre-discharge, N = 497): 4 (0.8) n (%)
Serious adverse event: Pulmonary edema ([1]; pre-discharge, N = 497): 3 (0.6) n (%)
Serious adverse event: Renal failure ([1]; pre-discharge, N = 497): 3 (0.6) n (%)
Serious adverse event: Respiratory tract infection ([1]; pre-discharge, N = 497): 0 (0.0) n (%)
Serious adverse event: Ventricular tachycardia ([1]; pre-discharge, N = 497): 3 (0.6) n (%)
Temporary treatment interruption due to AEs ([1]; pre-discharge, N = 497): 70 (14.1) n (%)
Temporary treatment interruption due to SAEs ([1]; pre-discharge, N = 497): 21 (4.2) n (%)
Temporary treatment interruption due to non-SAEs ([1]; pre-discharge, N = 497): 54 (10.9) n (%)
Adverse event: Cardiac failure [1, 5]: 34 (6.8) n (%)
Adverse event: Diarrhea [1, 5]: 12 (2.4) n (%)
Adverse event: Dizziness [1, 5]: 28 (5.6) n (%)
Adverse event: Hyperkalemia [1, 5]: 55 (11.1) n (%)
Adverse event: Hypotension [1, 5]: 61(12.3) n (%)
Adverse event: Peripheral edema [1, 5]: 17 (3.4) n (%)
Adverse event: Renal impairment [1, 5]: 25 (5.0) n (%)
Adverse event: Urinary tract infection [1, 5]: 20 (4.0) n (%)
Deaths [1, 6]: 13 (2.6) n (%)
Patients with ≥ SAE / at least one SAE [1, 6]: 94 (18.9) n (%)
Patients with ≥1 AE [1, 6]: 338 (68.0) n (%)
Permanent treatment discontinuation due to AEs ([1]; pre-discharge, N = 497, full analysis set): 22 (4.4) n (%)
AE of interest: Blood creatinine increased [1, 7]: 26 (3.7) n (%)
AE of interest: Cardiac failure [1, 7]: 58 (8.2) n (%)
AE of interest: Hyperkalemia [1, 7]: 85 (12.1) n (%)
AE of interest: Hypotension [1, 7]: 108 (10.9) n (%)
AE of interest: Renal failure [1, 7]: 16 (2.3) n (%)
AE of interest: Renal impairment [1, 7]: 32 (4.5) n (%)
At least one AE [1, 7]: 478 (67.8) n (%)
At least one serious AE [1, 7]: 130 (18.4) n (%)
Death [1, 7]: 5 (0.7) n (%)
Treatment interruption due to AE [1, 7]: 87 (12.3) n (%)
Ratio of time-averaged change in NT-proBNP from baseline to the geometric mean of weeks 4 and 8 (NT-proBNP; LCZ696 vs. Enalapril): 0.71
Ratio of change in NT-proBNP from baseline (NT-proBNP; LCZ696 vs. enalapril, week 1): 0.76
Share of maximal neprilysin inhibition delivered (neprilysin): approximately 90%
